Source: patent US20260091015A1, “TREATING IRON DEFICIENCY WITH FERRIC CARBOXYMALTOSE” (PHARMACOSMOS HOLDING A/S, priority 2018, published 2026)

Columns and labels:
[1] = clinical trials and case reports; Wolf et al., 2013; cited from earlier work
[2] = tested on: human intact FGF23; assay: Intact FGF23 (iFGF23) over time, two-site ELISA, trials IDA-04/IDA-05; type: in vivo; conditions: single dose 1000 mg at baseline
Protocol: The trial was a randomized, open-label, comparative trial. Subjects with Iron Deficiency Anaemia (IDA) were randomized 1:1 to one treatment course of one of the following treatments: • Group A: iron isomaltoside 1000 (Monofer®, Pharmacosmos, Holbok, Denmark, termed iron isomaltoside in the following), 1000 mg at baseline • Group B: ferric carboxymaltose (Ferinject®/Injectafer®, Vifor Inc, Switzerland), 750 mg at baseline and day 7, cumulative dose: 1500 mg
The secondary safety endpoints were the following: • Incidence of s-phosphate below 1.0 mg/dL at any time from baseline to day 35 • Time with hypophosphatemia (i.e. time with s-phosphate <2.0 mg/dL) from baseline to day 35 • Proportion of subjects with hypophosphatemia at day 35 • Absolute [Δ] and relative [%] changes in s-phosphate from baseline to 1, 7, 8, 14, 21, and 35 • Fractional phosphate urinary excretion at 1, 7, 8, 14, 21, and 35 • Change in iFGF23, cFGF23, vitamin D (25, 1,25, 24,25), PTH, and ionized calcium from baseline to 1, 7, 8, 14, 21, and 35 • Type and incidence of AEs • Serious or severe hypersensitivity reaction starting on or after the first dose of randomized treatment (i.e. treatment emergent). The hypersensitivity terms were defined as standardised Medical Dictionary for Regulatory Activities query (SMQ) terms. […]
The following safety laboratory assessments were analysed: • S-phosphate: inorganic phosphorous forms an ammonium phosphomolybdate complex having the formula (NH4)3[PO4](MoO3)12 with ammonium molybdate in the presence of sulfuric acid. The complex was determined photometrically in the ultraviolet region (340 nm) of the spectrum using the Roche Modular and Cobas Analyzer. • iFGF23 and cFGF23: the human intact FGF23 was measured by the 2nd generation Elisa kit manufactured by Immonotropics, Inc, San Clemente, CA. […] The human C-terminal FGF23 was measured by the Elisa kit manufactured by Immonotropics, Inc, San Clemente, CA. […] After evaporation under nitrogen, the residue was reconstituted and analyzed using Liquid Chromatography (LC) with Tandem Mass Spectrometric detection (MS/MS). […] A direct relationship exists between the amount of PTH present in the patient sample and the amount of relative light units (RLUs) detected by the system. • Ionized calcium: Measured by the IL GEM Premier 3500 PAK cartridge. […]

Row | change of the iFGF23 level [2] | Substance | risk for iFGF23-mediated reduction of serum phosphate levels and development of hypophosphatemia [1]
1 |  | saccharated iron oxide | highest risk
2 |  | iron polymaltose | highest risk
3 | essentially no change | iron isomaltoside 1000 [IIM] | 
